The record followed here is ChEMBL document CHEMBL1130466, “Benzothiazol-2-ylcarboxylic acids with diverse spacers: A novel class of potent, orally active aldose reductase inhibitors” (Bioorg Med Chem Lett, 1997).

Assay [1] has as its system Rattus norvegicus. The assay is described as follows: Percent inhibition of sorbitol accumulation in the lens of streptozotocin (STZ)-induced diabetic rats at peroral dose of 30 mg/kg (preventive effect). Format: functional. Conditions: Lens of camera-type eye, route oral.
In assay [2] the test system is Rattus norvegicus. As to the kind of experiment: Percent inhibition of sorbitol accumulation in the sciatic nerve of streptozotocin (STZ)- induced diabetic rats at peroral dose of 30 mg/kg (preventive effect). The assay is classed as functional. Conditions: route oral.
The target in assay [3] is Aldo-keto reductase family 1 member B1 (Sus scrofa, UniProt P80276). As to the kind of experiment: Inhibitory concentration against porcine lens aldose reductase (AR) with DL-glyceraldehyde as the substrate.
Assay [4] has as its system Rattus norvegicus. As to the kind of experiment: Inhibition of sorbitol accumulation in the lens in diabetic rats at peroral dose of 30 mg/kg (curative effect). The assay is classed as functional. Conditions: Lens of camera-type eye, route oral.
The test system of assay [5] is Rattus norvegicus. As to the kind of experiment: Inhibition of sorbitol accumulation in the sciatic nerve in diabetic rats at peroral dose of 30 mg/kg (curative effect). Format: functional. Conditions: route oral.
The target in assay [6] is Aldo-keto reductase family 1 member B1 (Sus scrofa) (UniProt P80276). As to the kind of experiment: In vitro percent inhibition of porcine lens aldose reductase (AR) at 10e -7 M with DL-glyceraldehyde as the substrate.
Assay [7] deals with Rattus norvegicus. As to the kind of experiment: Percent inhibition of sorbitol accumulation in the sciatic nerve of streptozotocin (STZ)- induced diabetic rats at peroral dose of 30 mg/kg (curative effect). Format: functional. Conditions: route oral.
The test system of assay [8] is Rattus norvegicus. The assay is described as follows: Percent inhibition of sorbitol accumulation in the lens of streptozotocin (STZ)-induced diabetic rats at peroral dose of 30 mg/kg (curative effect). Format: functional. The conditions noted are these: Lens of camera-type eye, route oral.

As to `CN(CC(=O)O)C(=O)CCc1nc2c(F)c(F)cc(F)c2s1`, the inhibition in vivo at 30 mg/kg in assay [1] turned out to be 30%; in assay [2], 61%.
On to `O=C(O)Cc1cc(F)cc(Cc2nc3c(F)c(F)cc(F)c3s2)c1`, for which the IC50 in assay [3] is 8.8 nM. Also, the median effective dose (ED50) in assay [4] worked out at 10 mg/kg; in assay [5], 0.32 mg/kg.
Take `O=C(O)Cc1cc(Cc2nc3c(F)c(F)cc(F)c3s2)cc(C(=O)O)c1`: the ED50 in assay [4] and in assay [5] was > 10 mg/kg throughout.
`O=C(O)CC1Sc2ccccc2N(Cc2nc3c(F)c(F)cc(F)c3s2)C1=O` (stereo not drawn): the ED50 in assay [4] was > 10 mg/kg; in assay [5], 1.8 mg/kg.
For `O=C(O)Cc1cc(Br)cc(Cc2nc3c(F)c(F)cc(F)c3s2)c1`, in that order: 9.8 mg/kg and 0.68 mg/kg.
As to `O=C(O)Cc1cc(Cl)cc(Cc2nc3c(F)c(F)cc(F)c3s2)c1`, in assay [3], inhibition was half-maximal at 7 nM (IC50). Besides, the ED50 in assay [4] was 7.8 mg/kg; in assay [5], 0.46 mg/kg.
Consider `O=C(O)CN(Cc1ccccc1)C(=O)CCc1nc2c(F)c(F)cc(F)c2s1`, for which the inhibition in vivo at 30 mg/kg in assay [1] was 54%; in assay [2], 75%.
`O=C(O)CCCCc1nc2c(F)c(F)cc(F)c2s1` returned an inhibition in assay [6] of 35%.
`O=C(O)CCCCCCc1nc2c(F)c(F)cc(F)c2s1` registered an inhibition in assay [6] of 11%.
Still for that read-out and setting: with `O=C(O)CCCc1nc2c(F)c(F)cc(F)c2s1` the figure was 1%.
As to `O=C(O)CN(C(=O)CCc1nc2c(F)c(F)cc(F)c2s1)c1ccccc1`, the values for the inhibition in vivo at 30 mg/kg in assay [1] and in assay [2] were 80% and 54%, respectively.
In turn, `O=C(O)CCCCCc1nc2c(F)c(F)cc(F)c2s1` yielded an inhibition in assay [6] of 71%. The same molecule registered an IC50 in assay [3] of 50 nM.
In the case of `O=C(O)Cc1ccc(Cc2nc3c(F)c(F)cc(F)c3s2)cc1`, in assay [3], it took 38 nM to reach half-maximal inhibition (IC50).
For the molecule `Cc1cc(CC(=O)O)cc(Cc2nc3c(F)c(F)cc(F)c3s2)c1`, the ED50 in assay [4] is 1.6 mg/kg; in assay [5] it was 0.25 mg/kg.
On to `COc1ccc2c(C(=S)N(C)CC(=O)O)cccc2c1C(F)(F)F` [TOLRESTAT], for which half-maximal inhibition in assay [3] (IC50) required 16 nM. Besides, the inhibition in vivo at 30 mg/kg in assay [1] amounted to 36%; in assay [2], 84%.
For `O=C(O)CN(Cc1ccccc1)C(=S)CCc1nc2c(F)c(F)cc(F)c2s1`, the inhibition in vivo at 30 mg/kg is 23% in assay [1] and 65% in assay [2].
In the same order, the values of `O=C(O)CN(CCc1ccccc1)C(=O)CCc1nc2c(F)c(F)cc(F)c2s1` are -2% and 65%.
Turning to `O=C(O)Cc1cccc(Cc2nc3c(F)c(F)cc(F)c3s2)c1`, the median effective dose (ED50) in assay [4] was > 10 mg/kg; in assay [5], 1.5 mg/kg.
Regarding `O=C(O)Cc1cc(I)cc(Cc2nc3c(F)c(F)cc(F)c3s2)c1`, the IC50 in assay [3] was 11 nM. Moreover, the ED50 in assay [4] and in assay [5] was > 10 mg/kg in each case.
The molecule `O=C(O)Cn1c(=O)n(Cc2ccc(Br)cc2F)c(=O)c2ccc(Cl)cc21` [ZENARESTAT] had a half-inhibitory concentration (IC50) in assay [3] of 12 nM. For the same molecule, the inhibition in vivo at 30 mg/kg in assay [1] stood at 30%; in assay [7], 76%; in assay [2], 89%; in assay [8], 21%.
`O=C(O)Cc1cccc(Cc2nc3c(F)c(F)cc(F)c3s2)c1Cl` showed a half-inhibitory concentration (IC50) in assay [3] of 9.3 nM. Besides, the ED50 came out at 0.71 mg/kg in assay [4] and 0.12 mg/kg in assay [5].
In the same order, the values of `CN(C)c1cc(CC(=O)O)cc(Cc2nc3c(F)c(F)cc(F)c3s2)c1.Cl` are 12 nM, > 10 mg/kg and 0.53 mg/kg.
For the molecule `O=C(O)CN(C(=S)CCc1nc2c(F)c(F)cc(F)c2s1)c1ccccc1`, the inhibition in vivo at 30 mg/kg in assay [1] was 12%; in assay [2], < 64%.
In the same order, the values of `CN(CC(=O)O)C(=S)CCc1nc2c(F)c(F)cc(F)c2s1` are 58% and 48%.
